Source: patent US12076307B2, “Compositions for prevention or treatment of acute radiation syndrome and other radiation exposure” (priority 2017, dated 2024)

Assays:
CYP1A2 [1] = molecular target: T1, CYP1A2 (Homo sapiens, UniProt P05177); test: biochemical; assay type: in vitro ADME
T1 construct: incubated with human liver microsomes; from tissue; host or cells: human liver microsomes

[2] = In vitro metabolic stability / metabolite screening, statements over all species; assay type: in vitro ADME, rat, dog, monkey, human; conditions: 100 μM
Protocol: [^14C]EC-18 or the positive control (7-ethoxycoumarin; 7-EC) reacted with microsomes prepared from hepatocytes of rats, dogs, monkeys, and humans, with or without cofactors, for 60 and 120 min. Then, the residual EC-18 concentration over time was measured by LC-RID ([^14C]EC-18) or LC-MS/MS (7-EC) (FIG. 63 and FIG. 64).
The LC-RID chromatographic profiles of radioactive metabolites produced in the 2-hr incubation reaction mixtures of the same test systems A, B, and C used to assess the metabolic and non-metabolic elimination rates of EC-18 were compared to the LC-UV chromatographic profiles of the synthetic reference material. […] The relative radioactivity of EC-18 accounted for 42-67% of total radioactivity. The peaks designated as M2, M3, and M5 were also determined in all species, and their relative radioactivity accounted for 12-34% of total radioactivity. The peaks of M4 and M6 were determined in monkeys and humans. M1 was abundantly detected in all species, but it was assumed to be a peak of early elution. The LC-UV chromatograms of reaction mixtures in each test system (FIGS. 65A-65C) and the relative radioactivity of the screened metabolites are shown in Table 25.

[3] = In vitro plasma stability, rat plasma; assay type: in vitro ADME; conditions: Rats; 1 μM; 37° C.; n=3
Protocol: (§1) To assess the stability of EC-18 in plasma, the test material, or the standard reference material (test concentration 1 μM) was mixed with rat and human plasma and allowed to react for 1 hr at 37° C. Then, the residual EC-18 concentration was measured by LC-MS/MS. As standard reference materials, albendazole (a drug with high plasma stability) and vinpocetine (a drug with low plasma stability) were tested in parallel. When allowed to react with rat and human plasma for 1 hr, the residual EC-18 concentration in both rat and human plasma was >99% of the initial dose.

[4] = In vitro plasma stability, human plasma; assay type: in vitro ADME; conditions: Humans; 1 μM; 37° C.; n=3
Protocol: as §1

CXCL8 = CXCL8 release in HaCaT cells treated with CM or rhHMGB1; assay type: cell-based, human; conditions: rhHMGB1-treated cells
Protocol: An additional experiment was tested for assessing whether EC-18 treatment leads to early termination of the RIPK1/3-MLKL-mediated downstream necroptosis pathway. This was performed by using DAMP-containing conditioned media (CM) harvested from HaCaT cells, irradiated for 48 hrs, and analyzed after 2 or 72 hrs of EC-18 treatment. […] To further confirm that DAMPs in CM contribute to the activation of a necroptosis signaling pathway in a paracrine manner, recombinant human HMGB1 (rhHMGB1) was treated directly to the normal HaCaT cells. The rhHMGB1 elevated the phosphorylation of RIPK1/3 and MLKL after 2 hrs and subsequently released HMGB1 and HSP90 (FIGS. 35C-35D). To evaluate whether EC-18 mitigates the activation of RIPK1/3 and MLKL, 10 or 100 μg/mL of EC-18 was treated before the addition of CM or rhHMGB1. As a result, EC-18 lowered the phosphorylation of RIPK/3 and MLKL in both CM- and rhHMGB1-treated cells after 2 hrs. Release of HMGB1 and Hsp90 was also subsided by EC-18 after 72 hrs of post addition of CM or rhHMGB1 to the cells (FIGS. 35A-35D). TLR4-induced necroptosis signaling pathway caused by DAMP release produces cytokines, such as CXCL8, a chemotactic cytokine for neutrophils. As CXCL8 increases upon tissue damage, it was measured in cells treated with CM or rhHMGB1 as a measure of inflammation. CXCL8 of CM from cells treated with chemo and radiotherapy was used for this evaluation. […] Moreover, rhHMGB1 increased the production of CXCL8, modulated by EC-18.

CYP2C19 = CYP2C19 (Homo sapiens, UniProt P33261); test: CYP enzyme inhibition in human liver microsomes, CYP2C19
Description: (§2) CYP1A2, CYP2C9, CYP2C19, CYP2D6, and CYP3A4 are the CYP subfamily, which plays a critical role in the metabolism of most drugs.

CYP1A2 [5] = assay type: in vitro ADME, human; conditions: Positive Control, 50 μM; n=3
CYP2D6 = CYP2D6 (Homo sapiens, UniProt P10635); test: CYP enzyme inhibition in human liver microsomes, CYP2D6
Description: as §2

Sequence of CYP2D6 (P10635 whole entry): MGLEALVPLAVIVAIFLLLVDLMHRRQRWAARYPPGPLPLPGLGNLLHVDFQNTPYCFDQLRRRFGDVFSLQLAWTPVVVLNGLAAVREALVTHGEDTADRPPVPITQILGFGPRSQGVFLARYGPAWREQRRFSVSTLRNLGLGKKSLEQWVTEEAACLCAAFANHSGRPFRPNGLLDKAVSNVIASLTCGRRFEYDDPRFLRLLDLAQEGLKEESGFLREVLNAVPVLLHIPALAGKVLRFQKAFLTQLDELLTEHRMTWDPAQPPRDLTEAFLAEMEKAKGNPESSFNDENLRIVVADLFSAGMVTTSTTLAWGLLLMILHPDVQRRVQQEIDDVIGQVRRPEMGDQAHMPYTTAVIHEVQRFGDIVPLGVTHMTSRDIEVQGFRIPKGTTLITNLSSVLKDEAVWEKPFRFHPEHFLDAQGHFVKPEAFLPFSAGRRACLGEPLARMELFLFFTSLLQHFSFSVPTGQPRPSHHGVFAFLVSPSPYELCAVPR
T1 sequence (P05177 whole entry): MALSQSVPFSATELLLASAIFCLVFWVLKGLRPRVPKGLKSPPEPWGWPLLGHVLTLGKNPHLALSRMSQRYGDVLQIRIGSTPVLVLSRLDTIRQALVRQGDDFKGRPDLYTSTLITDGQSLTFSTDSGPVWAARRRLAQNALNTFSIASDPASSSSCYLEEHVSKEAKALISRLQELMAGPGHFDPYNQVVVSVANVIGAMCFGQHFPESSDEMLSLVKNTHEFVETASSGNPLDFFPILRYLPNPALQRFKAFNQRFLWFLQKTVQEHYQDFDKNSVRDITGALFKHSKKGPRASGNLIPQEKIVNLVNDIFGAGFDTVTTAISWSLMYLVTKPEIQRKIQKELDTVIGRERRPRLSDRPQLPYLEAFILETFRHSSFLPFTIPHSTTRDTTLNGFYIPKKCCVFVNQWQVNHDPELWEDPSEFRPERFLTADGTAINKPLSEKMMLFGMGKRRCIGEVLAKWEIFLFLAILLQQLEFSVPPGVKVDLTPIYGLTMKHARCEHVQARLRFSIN
Sequence of CYP2C19 (P33261 whole entry): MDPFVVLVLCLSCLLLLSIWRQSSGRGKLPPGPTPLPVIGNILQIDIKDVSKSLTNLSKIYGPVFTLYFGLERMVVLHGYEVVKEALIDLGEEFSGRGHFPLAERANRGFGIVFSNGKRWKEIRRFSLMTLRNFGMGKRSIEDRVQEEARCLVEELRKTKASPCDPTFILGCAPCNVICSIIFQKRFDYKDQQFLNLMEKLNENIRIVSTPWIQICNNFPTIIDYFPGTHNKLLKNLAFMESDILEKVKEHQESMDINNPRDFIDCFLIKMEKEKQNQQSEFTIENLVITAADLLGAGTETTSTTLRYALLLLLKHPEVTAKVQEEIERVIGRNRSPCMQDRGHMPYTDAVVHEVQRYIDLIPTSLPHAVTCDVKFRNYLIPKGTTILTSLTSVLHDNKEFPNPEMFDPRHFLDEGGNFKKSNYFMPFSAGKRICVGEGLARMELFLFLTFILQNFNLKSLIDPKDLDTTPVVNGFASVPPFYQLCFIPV

For CCOc1ccc2ccc(=O)oc2c1 [7-EC, 7-ethoxycoumarin, reference compound], the IC50 (CYP1A2 [1]) was 1.7 µM, the “share of initial concentration eliminated” value ([2]; 1 hr, test systems A and B, rats, dogs, monkeys, humans) was no less than 99% and the “share of initial concentration retained” value ([2]; 2 hrs, test system C) was no less than 92%.
In the case of CCCSc1ccc2nc(NC(=O)OC)[nH]c2c1 [Albendazol, albendazole, reference compound], the “Residual Concentration Relative to the Initial Dose After Reaction for 1 hr in Plasma” value [3] is reported as greater than 99% and the “Residual Concentration Relative to the Initial Dose After Reaction for 1 hr in Plasma” value [4] is reported as greater than 99%.
In the case of CC(C)S(=O)(=O)c1ccc2nccc(Nc3ccc4scnc4c3)c2c1 [GSK872, reference compound], the CXCL8 production (CXCL8) is reported as “significant reduction”.
In the case of CN1C(=O)C(Cc2c[nH]c3ccccc23)NC1=S (stereo not drawn) [Necrostin-1, reference compound], the CXCL8 production (CXCL8) is reported as “significant reduction”.
For CCOC(=O)C1=C[C@]2(CC)CCCN3CCc4c(n1c1ccccc41)[C@@H]32 [Vinpocetin, vinpocetine, reference compound], the “Residual Concentration Relative to the Initial Dose After Reaction for 1 hr in Plasma” value [3] was 52.4 ± 7.2% and the “Residual Concentration Relative to the Initial Dose After Reaction for 1 hr in Plasma” value [4] was 85.3 ± 3.8%.
For COc1ccc2[nH]c([S+]([O-])Cc3ncc(C)c(OC)c3C)nc2c1 (stereo not drawn) [omeprazole, reference compound], the IC50 (CYP2C19) was 6 µM and the “Enzyme Activity CYP1A2” value (CYP1A2 [5]) was 6.56 ± 2.86 pmol/106 Cells/Min.
In the case of CC(CN1c2ccccc2Sc2ccccc21)N(C)C (stereo not drawn) [promethazine, reference compound], the IC50 (CYP2D6) is reported as 67.9 µM.
